Measurements taken from ChEMBL document CHEMBL5154787 (J Med Chem, 2022).

What was measured:
[1] = biological target: AP2-associated protein kinase 1 (Mus musculus, UniProt Q3UHJ0); test: Displacement of 3H-LP-927443 from AAK1 in C57BL6 mouse brain homogenate assessed as inhibition constant incubated for 1 hr by liquid scintillation counter analysis; type: tissue-based
[2] = Metabolic stability in human liver microsomes assessed as parent compound remaining at 0.5 uM incubated for 10 mins in presence of NADPH by LC-MS/MS analysis; type: ADME, Microsome; conditions: read-out: Stability
[3] = Efflux ratio of permeability in human Caco-2 cells; type: ADME, cell-based
[4] = Metabolic stability in rat liver microsomes assessed as parent compound remaining at 0.5 uM incubated for 10 mins in presence of NADPH by LC-MS/MS analysis; type: ADME, Microsome; conditions: read-out: Stability
Cytochrome P450 3A4 = Cytochrome P450 3A4 (Homo sapiens, UniProt P08684); test: Inhibition of CYP3A4 (unknown origin) incubated for 10 mins in presence of NADPH by LC-MS/MS analysis; type: ADME
[5] = Metabolic stability in mouse liver microsomes assessed as parent compound remaining at 0.5 uM incubated for 10 mins in presence of NADPH by LC-MS/MS analysis; type: ADME, Microsome; conditions: liver microsomes, read-out: Stability
[6] = biological target: T1, AP2-associated protein kinase 1 (Homo sapiens, UniProt Q2M2I8); test: Inhibition of full length human AAK1 expressed in HEK293F cells assessed as suppression of AP2 phosphorylation measured after 3 hrs by Western blot analysis based cellular assay; type: cell-based
[7] = Ratio of drug concentration in brain to plasma in Sprague-Dawley rat at 3 mg/kg, po measured at 2 hrs post dose; type: ADME, organism-based
[8] = biological target: MAP kinase-interacting serine/threonine-protein kinase 1 (Homo sapiens, UniProt Q9BUB5); test: Inhibition of MNK1 (unknown origin)
[9] = biological target: Citron Rho-interacting kinase (Homo sapiens, UniProt O14578); test: Inhibition of CRIK (unknown origin)
[10] = Cardiotoxicity in aortic ring (unknown origin) assessed as relaxation of phenylephrine induced aortic ring contraction at 10 uM incubated for 1 hr; type: toxicity, tissue-based, Aorta; set-up: scale not given: the % may be the effect or the level left; conditions: human
[11] = biological target: BMP-2-inducible protein kinase (Homo sapiens, UniProt Q9NSY1); test: Inhibition of BIKE (unknown origin)
[12] = biological target: T1, AP2-associated protein kinase 1; test: Inhibition of bacterially expressed GST-Xa-tagged human AAK1 using 5-FAM-labelled Aha-KEEQSQITSQVTGQIGWR-NH2 peptide as substrate incubated for 3 hrs in presence of ATP by electrophoretic analysis
[13] = Plasma concentration in STZ-induced diabetic peripheral neuropathic mechanical allodynia in overnight fasted Sprague-Dawley rat at 1 mg/kg, po measured at 5.75 hrs post dose; type: ADME, organism-based
[14] = Ratio of drug concentration in spinal cord to plasma in STZ-induced diabetic peripheral neuropathic mechanical allodynia in overnight fasted Sprague-Dawley rat at 1 mg/kg, po measured at 5.75 hrs post dose; type: ADME, organism-based
[15] = Drug concentration in STZ-induced diabetic peripheral neuropathic mechanical allodynia in overnight fasted Sprague-Dawley rat spinal cord at 1 mg/kg, po measured at 5.75 hrs post dose; type: ADME, organism-based; conditions: read-out: Ct

AP2-associated protein kinase 1 (Mus musculus, UniProt Q3UHJ0), sequence (Q3UHJ0 whole entry): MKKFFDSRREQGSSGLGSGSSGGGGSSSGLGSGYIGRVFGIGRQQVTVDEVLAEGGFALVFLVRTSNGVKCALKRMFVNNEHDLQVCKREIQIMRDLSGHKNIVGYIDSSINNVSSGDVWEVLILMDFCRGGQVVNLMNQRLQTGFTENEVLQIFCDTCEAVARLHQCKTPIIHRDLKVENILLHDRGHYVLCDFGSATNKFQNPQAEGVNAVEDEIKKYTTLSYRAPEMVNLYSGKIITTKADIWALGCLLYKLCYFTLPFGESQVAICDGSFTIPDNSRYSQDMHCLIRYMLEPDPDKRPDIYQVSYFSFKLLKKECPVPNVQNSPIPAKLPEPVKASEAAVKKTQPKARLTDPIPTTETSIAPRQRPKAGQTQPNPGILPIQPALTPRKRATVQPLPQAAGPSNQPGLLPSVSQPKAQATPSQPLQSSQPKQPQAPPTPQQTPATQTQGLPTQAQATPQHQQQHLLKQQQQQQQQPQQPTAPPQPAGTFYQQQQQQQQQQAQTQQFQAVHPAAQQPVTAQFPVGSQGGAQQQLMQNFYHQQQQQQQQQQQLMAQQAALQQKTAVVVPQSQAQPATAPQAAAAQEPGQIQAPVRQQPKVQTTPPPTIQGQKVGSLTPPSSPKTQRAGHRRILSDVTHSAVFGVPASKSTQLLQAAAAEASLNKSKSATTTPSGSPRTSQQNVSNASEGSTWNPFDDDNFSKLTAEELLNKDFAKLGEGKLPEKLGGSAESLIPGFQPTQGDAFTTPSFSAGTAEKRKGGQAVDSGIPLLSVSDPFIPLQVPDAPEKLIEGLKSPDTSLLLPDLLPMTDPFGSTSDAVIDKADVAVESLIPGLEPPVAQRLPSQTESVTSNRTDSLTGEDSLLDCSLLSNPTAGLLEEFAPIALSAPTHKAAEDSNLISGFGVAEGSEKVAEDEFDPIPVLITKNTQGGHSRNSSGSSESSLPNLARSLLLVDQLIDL
Cytochrome P450 3A4, sequence (P08684 whole entry): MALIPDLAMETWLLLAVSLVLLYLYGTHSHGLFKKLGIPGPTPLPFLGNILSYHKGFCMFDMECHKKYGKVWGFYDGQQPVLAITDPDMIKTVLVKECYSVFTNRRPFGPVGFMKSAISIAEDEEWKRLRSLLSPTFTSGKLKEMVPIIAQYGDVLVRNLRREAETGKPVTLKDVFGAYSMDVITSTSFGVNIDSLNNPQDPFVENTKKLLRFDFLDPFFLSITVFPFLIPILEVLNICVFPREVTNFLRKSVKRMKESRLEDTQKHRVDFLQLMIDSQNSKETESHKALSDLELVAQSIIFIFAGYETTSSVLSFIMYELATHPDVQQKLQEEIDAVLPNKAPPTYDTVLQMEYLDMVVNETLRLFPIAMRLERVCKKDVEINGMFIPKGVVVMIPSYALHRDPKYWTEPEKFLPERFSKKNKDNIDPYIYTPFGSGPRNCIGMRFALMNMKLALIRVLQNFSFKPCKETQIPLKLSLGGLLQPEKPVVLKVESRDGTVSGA
T1 sequence (Q2M2I8 whole entry): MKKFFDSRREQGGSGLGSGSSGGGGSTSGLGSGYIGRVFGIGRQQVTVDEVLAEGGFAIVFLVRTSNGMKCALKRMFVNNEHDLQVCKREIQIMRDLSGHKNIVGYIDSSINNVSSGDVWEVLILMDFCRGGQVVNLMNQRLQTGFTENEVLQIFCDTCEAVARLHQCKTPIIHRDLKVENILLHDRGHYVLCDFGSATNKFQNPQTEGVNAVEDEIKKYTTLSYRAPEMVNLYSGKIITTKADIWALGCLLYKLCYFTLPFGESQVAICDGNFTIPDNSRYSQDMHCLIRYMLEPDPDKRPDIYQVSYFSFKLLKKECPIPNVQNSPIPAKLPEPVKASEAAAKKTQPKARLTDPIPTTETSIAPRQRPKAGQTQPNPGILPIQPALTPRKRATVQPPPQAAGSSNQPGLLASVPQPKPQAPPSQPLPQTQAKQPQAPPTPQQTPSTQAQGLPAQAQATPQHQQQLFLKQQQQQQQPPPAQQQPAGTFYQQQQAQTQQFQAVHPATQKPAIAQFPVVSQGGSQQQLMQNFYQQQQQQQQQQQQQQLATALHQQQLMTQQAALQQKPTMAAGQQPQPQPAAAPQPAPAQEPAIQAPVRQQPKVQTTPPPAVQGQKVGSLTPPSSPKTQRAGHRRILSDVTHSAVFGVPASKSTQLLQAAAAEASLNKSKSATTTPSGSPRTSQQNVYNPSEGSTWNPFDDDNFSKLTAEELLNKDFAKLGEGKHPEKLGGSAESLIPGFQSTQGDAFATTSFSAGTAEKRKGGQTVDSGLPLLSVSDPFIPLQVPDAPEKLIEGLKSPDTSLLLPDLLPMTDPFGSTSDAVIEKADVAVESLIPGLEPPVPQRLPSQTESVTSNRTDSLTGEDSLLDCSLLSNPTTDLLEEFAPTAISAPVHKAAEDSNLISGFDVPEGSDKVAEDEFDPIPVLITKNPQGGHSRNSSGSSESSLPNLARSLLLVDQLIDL
Citron Rho-interacting kinase, sequence (O14578 whole entry): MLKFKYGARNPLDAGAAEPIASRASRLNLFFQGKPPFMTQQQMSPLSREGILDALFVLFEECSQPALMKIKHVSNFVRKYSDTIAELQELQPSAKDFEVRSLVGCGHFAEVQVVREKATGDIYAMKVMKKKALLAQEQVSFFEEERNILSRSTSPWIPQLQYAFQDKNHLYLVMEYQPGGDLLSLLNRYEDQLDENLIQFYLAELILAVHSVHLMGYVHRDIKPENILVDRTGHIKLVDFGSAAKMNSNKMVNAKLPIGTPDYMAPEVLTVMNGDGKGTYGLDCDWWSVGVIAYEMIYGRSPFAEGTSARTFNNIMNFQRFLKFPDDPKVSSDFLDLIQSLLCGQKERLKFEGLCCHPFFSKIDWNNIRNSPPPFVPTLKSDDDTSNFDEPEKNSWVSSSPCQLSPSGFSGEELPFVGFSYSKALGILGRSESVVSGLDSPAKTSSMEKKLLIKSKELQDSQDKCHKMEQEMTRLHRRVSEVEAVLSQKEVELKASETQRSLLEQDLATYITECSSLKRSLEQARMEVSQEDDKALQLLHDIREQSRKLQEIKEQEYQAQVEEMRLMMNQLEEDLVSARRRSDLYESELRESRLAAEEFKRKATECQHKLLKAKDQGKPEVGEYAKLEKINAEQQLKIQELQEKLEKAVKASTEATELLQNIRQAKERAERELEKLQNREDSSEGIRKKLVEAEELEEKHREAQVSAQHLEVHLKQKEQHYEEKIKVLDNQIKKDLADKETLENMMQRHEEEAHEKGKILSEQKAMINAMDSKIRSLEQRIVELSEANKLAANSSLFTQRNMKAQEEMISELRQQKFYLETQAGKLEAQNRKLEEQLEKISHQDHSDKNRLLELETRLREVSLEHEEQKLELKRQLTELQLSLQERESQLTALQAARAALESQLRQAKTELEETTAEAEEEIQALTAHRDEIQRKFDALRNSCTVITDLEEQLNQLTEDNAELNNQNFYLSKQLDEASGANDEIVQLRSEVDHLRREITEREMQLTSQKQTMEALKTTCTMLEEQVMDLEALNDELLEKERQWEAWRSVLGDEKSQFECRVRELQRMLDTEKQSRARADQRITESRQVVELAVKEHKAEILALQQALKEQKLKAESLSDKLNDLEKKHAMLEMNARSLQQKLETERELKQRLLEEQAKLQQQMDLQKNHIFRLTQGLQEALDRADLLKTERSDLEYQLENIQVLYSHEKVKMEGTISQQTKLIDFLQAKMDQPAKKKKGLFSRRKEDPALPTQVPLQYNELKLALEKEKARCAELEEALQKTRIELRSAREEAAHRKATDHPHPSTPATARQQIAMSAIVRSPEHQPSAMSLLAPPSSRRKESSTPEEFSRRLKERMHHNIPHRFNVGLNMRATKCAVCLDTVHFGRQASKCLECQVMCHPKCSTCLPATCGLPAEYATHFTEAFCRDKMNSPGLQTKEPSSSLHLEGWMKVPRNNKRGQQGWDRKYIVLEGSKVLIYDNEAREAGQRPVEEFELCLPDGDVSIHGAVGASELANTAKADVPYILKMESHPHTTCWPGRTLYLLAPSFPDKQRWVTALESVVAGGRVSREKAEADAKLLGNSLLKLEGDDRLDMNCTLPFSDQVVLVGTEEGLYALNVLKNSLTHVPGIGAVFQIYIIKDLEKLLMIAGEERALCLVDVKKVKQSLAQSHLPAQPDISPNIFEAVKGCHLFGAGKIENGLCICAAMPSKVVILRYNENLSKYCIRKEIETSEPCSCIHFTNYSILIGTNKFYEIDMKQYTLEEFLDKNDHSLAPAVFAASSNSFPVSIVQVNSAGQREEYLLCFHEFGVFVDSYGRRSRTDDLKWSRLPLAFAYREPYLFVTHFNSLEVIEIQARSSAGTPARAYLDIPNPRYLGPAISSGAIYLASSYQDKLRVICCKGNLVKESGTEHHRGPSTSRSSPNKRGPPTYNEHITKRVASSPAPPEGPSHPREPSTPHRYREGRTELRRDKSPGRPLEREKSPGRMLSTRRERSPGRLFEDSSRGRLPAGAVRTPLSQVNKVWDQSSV
MAP kinase-interacting serine/threonine-protein kinase 1, sequence (Q9BUB5 whole entry): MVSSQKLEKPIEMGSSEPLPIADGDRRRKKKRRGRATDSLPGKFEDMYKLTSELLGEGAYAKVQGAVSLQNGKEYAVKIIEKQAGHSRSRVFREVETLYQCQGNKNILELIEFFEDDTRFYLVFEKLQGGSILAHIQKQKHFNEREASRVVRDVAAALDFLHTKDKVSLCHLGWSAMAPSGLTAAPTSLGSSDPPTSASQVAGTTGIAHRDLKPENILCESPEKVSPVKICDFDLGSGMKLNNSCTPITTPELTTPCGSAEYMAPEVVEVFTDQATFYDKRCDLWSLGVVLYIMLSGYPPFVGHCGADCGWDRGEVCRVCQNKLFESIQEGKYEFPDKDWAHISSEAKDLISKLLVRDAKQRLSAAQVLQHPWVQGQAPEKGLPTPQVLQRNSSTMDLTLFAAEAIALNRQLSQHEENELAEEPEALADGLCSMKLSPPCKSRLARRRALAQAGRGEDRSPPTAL

Ki [1] [nM] | remaining at 10 min, 0.5 µM [2] [%] | efflux ratio [3] | remaining at 10 min, 0.5 µM [4] [%] | IC50 (Cytochrome P450 3A4) [nM] | remaining at 10 min, 0.5 µM [5] [%] | IC50 [6] [nM] | Kp at 2 h [7] | IC50 [8] [nM] | IC50 [9] [nM] | IC50 [11] [nM] | IC50 [12] [nM] | concentration at 5.75 h [13] [µM] | Kp at 5.75 h [14] | concentration at 5.75 h [15] [µM] | SMILES | Activity [10] [%]
0.96 | 96 | 4.2 | 92 | 6900 | 58 | 3.8 | – | – | – | – | – | – | – | – | COc1cc(-c2ccnc(NC(C)=O)c2)ccc1OC[C@@H](N)CC(C)C | –
0.04 | 87 | 6.3 | 83 | 2600 | 84 | 0.5 | 0.45 | – | – | – | – | – | – | – | CC(=O)Nc1cc(-c2ccc(OC[C@@H](N)CC(C)C)c(C#N)c2)ccn1 | –
0.09 | 64 | 2.5 | 78 | > 20000 | 71 | 0.6 | – | – | – | – | 0.6 | – | – | – | CC(=O)Nc1cc(-c2ccc(OC[C@@](C)(N)CC(C)C)c(C#N)c2)ccn1 | –
0.07 | 57 | – | 88 | 13000 | 69 | 0.8 | – | – | – | – | 0.5 | – | – | – | COC(=O)Nc1cc(-c2ccc(OC[C@@](C)(N)CC(C)C)c(C#N)c2)ccn1 | –

The remaining lines, values behind:

SMILES | Ki [1] [nM] | remaining at 10 min, 0.5 µM [2] [%] | efflux ratio [3] | remaining at 10 min, 0.5 µM [4] [%] | IC50 (Cytochrome P450 3A4) [nM] | remaining at 10 min, 0.5 µM [5] [%] | IC50 [6] [nM] | Kp at 2 h [7] | IC50 [8] [nM] | IC50 [9] [nM] | IC50 [11] [nM] | IC50 [12] [nM] | concentration at 5.75 h [13] [µM] | Kp at 5.75 h [14] | concentration at 5.75 h [15] [µM] | Activity [10] [%]
Cc1cc(-c2cc(Cl)c(OC[C@@](C)(N)CC(C)C)cn2)ccn1 | 0.7 | 86 | – | 73 | > 20000 | 71 | 1.9 | – | 1900 | 1300 | 1500 | – | – | – | – | 50
CC(C)C[C@](C)(N)COc1ccc(-c2ccnc(C(F)F)c2)nc1C(F)F [PILAVAPADIN] | – | – | – | – | – | – | – | – | – | – | – | – | 0.084 | 2.9 | 0.245 | –
COC(=O)Nc1cc(-c2cnc(OC[C@@](C)(N)CC(C)C)c(OC)c2)ccn1 (racemic) | 2.5 | 86 | – | 79 | > 20000 | 59 | – | – | – | – | – | 3.8 | – | – | – | 91
